Target: human PD-L1 (Homo sapiens (Human), UniProt Q9NZQ7)
Assay: T cell activation luciferase reporter cell culture system (T Cell Activation Assay)
Format: cell-based
Details: luciferase reporter assay; PD-L1 aAPC/CHO-K1 cells with PD-1 effector Jurkat T cells

Chain of human PD-L1 (Q9NZQ7 19-290): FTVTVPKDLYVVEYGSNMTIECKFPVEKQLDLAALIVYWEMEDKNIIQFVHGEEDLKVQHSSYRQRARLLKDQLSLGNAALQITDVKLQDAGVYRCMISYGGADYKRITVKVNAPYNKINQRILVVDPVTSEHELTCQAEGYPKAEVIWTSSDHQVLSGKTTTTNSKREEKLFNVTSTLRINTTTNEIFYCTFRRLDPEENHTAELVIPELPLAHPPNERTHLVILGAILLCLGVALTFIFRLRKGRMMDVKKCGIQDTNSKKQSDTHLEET

COc1cc(-c2nccc(-c3cccc(-c4ccc5c(CNC[C@@H]6CCCO6)cn(C)c5n4)c3Cl)c2Cl)ccc1CNC[C@@H]1CCC(=O)N1 [Cmpd 93, (S)-5-(((4-(3-chloro-4-(2-chloro-3-(1-methyl-3-(((((S)-tetrahydrofuran-2-yl)methyl)amino)methyl)-1H-pyrrolo[2,3-b]pyridin-6-yl)phenyl)pyridin-2-yl)-2-methoxybenzyl)amino)methyl)pyrrolidin-2-one]
EC50: 44.2 nM

COc1nc(-c2cccc(-c3ccnc(-c4cc5c(=O)n(C)c(CNC6CC(C)(O)C6)nn5c4)c3Cl)c2Cl)ccc1CNC[C@@H]1CCC(=O)N1 (stereo partly drawn) [Cmpd 102, (S)-6-(3-chloro-4-(2-chloro-3-(6-methoxy-5-((((5-oxopyrrolidin-2-yl)methyl)amino)methyl)pyridin-2-yl)phenyl)pyridin-2-yl)-2-(((3-hydroxy-3-methylcyclobutyl)amino)methyl)-3-methylpyrrolo[2,1-f][1,2,4]triazin-4(3H)-one]
EC50: 342 nM

COc1cc(-c2nccc(-c3cccc(-c4cc(Cl)c(CNC[C@@H]5CCC(=O)N5)c(OC)n4)c3Cl)c2Cl)cc2c1CN(C[C@@H](C)O)CC2 [Cmpd 104, (S)-5-((((4-chloro-6-(2-chloro-3-(3-chloro-2-(2-((R)-2-hydroxypropyl)-8-methoxy-1,2,3,4-tetrahydroisoquinolin-6-yl)pyridin-4-yl)phenyl)-2-methoxypyridin-3-yl)methyl)amino)methyl)pyrrolidin-2-one]
EC50: 30.7 nM

COc1cc(-c2nccc(-c3cccc(-c4cc(Cl)c(CNC[C@@H]5CCC(=O)N5)c(OC)n4)c3Cl)c2Cl)ccc1CNCC(=O)O [Cmpd 105, (S)-(4-(3-chloro-4-(2-chloro-3-(4-chloro-6-methoxy-5-((((5-oxopyrrolidin-2-yl)methyl)amino)methyl)pyridin-2-yl)phenyl)pyridin-2-yl)-2-methoxybenzyl)glycine]
EC50: 191 nM

COc1cc(-c2nccc(-c3cccc(-c4ccc(CNC[C@@H]5CCC(=O)N5)c(OC)n4)c3Cl)c2Cl)ccc1CNCC(=O)O [Cmpd 107, (S)-(4-(3-chloro-4-(2-chloro-3-(6-methoxy-5-((((5-oxopyrrolidin-2-yl)methyl)amino)methyl)pyridin-2-yl)phenyl)pyridin-2-yl)-2-methoxybenzyl)glycine]
EC50: 253 nM

COc1cc(-c2nccc(-c3cccc(-c4ccc(CNC[C@@H]5CCC(=O)N5)c(OC)n4)c3Cl)c2Cl)ccc1CNCC(=O)OC(C)C [Cmpd 108, isopropyl (S)-(4-(3-chloro-4-(2-chloro-3-(6-methoxy-5-((((5-oxopyrrolidin-2-yl)methyl)amino)methyl)pyridin-2-yl)phenyl)pyridin-2-yl)-2-methoxybenzyl)glycinate]
EC50: 140 nM

COc1cc(-c2nccc(-c3cccc(-c4ccc(CNC[C@@H]5CCC(=O)N5)c(OC)n4)c3Cl)c2Cl)ccc1CNC1CCN(C(C)=O)CC1 [Cmpd 109, (S)-5-((((6-(3-(2-(4-(((1-acetylpiperidin-4-yl)amino)methyl)-3-methoxyphenyl)-3-chloropyridin-4-yl)-2-chlorophenyl)-2-methoxypyridin-3-yl)methyl)amino)methyl)pyrrolidin-2-one]
EC50: 27.9 nM

COc1nc(-c2cccc(-c3ccnc(-c4cnn(C5CNC5)c4)c3Cl)c2Cl)ccc1CNC[C@@H]1CCC(=O)N1 [Cmpd 119, (S)-5-((((6-(3-(2-(1-(azetidin-3-yl)-1H-pyrazol-4-yl)-3-chloropyridin-4-yl)-2-chlorophenyl)-2-methoxypyridin-3-yl)methyl)amino)methyl)pyrrolidin-2-one]
EC50: 370 nM

COc1nc(-c2cccc(-c3ccnc(-c4cnn(CC5CNC5)c4)c3Cl)c2Cl)ccc1CNC[C@@H]1CCC(=O)N1 [Cmpd 120, (S)-5-((((6-(3-(2-(1-(azetidin-3-ylmethyl)-1H-pyrazol-4-yl)-3-chloropyridin-4-yl)-2-chlorophenyl)-2-methoxypyridin-3-yl)methyl)amino)methyl)pyrrolidin-2-one]
EC50: 972 nM

COc1cc(-c2nccc(-c3cccc(-c4ccc(CNC[C@@H]5CCC(=O)N5)c(OC)n4)c3Cl)c2Cl)ccc1CNC1(C(=O)O)CC1 [Cmpd 121, (S)-1-((4-(3-chloro-4-(2-chloro-3-(6-methoxy-5-((((5-oxopyrrolidin-2-yl)methyl)amino)methyl)pyridin-2-yl)phenyl)pyridin-2-yl)-2-methoxybenzyl)amino)cyclopropane-1-carboxylic acid]
EC50: 131 nM

COc1cc(-c2nccc(-c3cccc(-c4ccc(CNC[C@@H]5CCC(=O)N5)c(OC)n4)c3Cl)c2Cl)ccc1CNC[C@@H]1CCO1 [Cmpd 122, (S)-5-((((6-(2-chloro-3-(3-chloro-2-(3-methoxy-4-(((((S)-oxetan-2-yl)methyl)amino)methyl)phenyl)pyridin-4-yl)phenyl)-2-methoxypyridin-3-yl)methyl)amino)methyl)pyrrolidin-2-one]
EC50: 55.7 nM

COc1cc(-c2nccc(-c3cccc(-c4cc(Cl)c(CNC[C@@H]5CCC(=O)N5)c(OC)n4)c3Cl)c2Cl)ccc1CNCC(=O)OC(C)C [Cmpd 123, isopropyl (S)-(4-(3-chloro-4-(2-chloro-3-(4-chloro-6-methoxy-5-((((5-oxopyrrolidin-2-yl)methyl)amino)methyl)pyridin-2-yl)phenyl)pyridin-2-yl)-2-methoxybenzyl)glycinate]
EC50: 129 nM

COc1cc(-c2nccc(-c3cccc(-c4cc(Cl)c(CNC[C@@H]5CCC(=O)N5)c(OC)n4)c3Cl)c2Cl)cc2c1CN(CCO)CC2 [Cmpd 124, (S)-5-((((4-chloro-6-(2-chloro-3-(3-chloro-2-(2-(2-hydroxyethyl)-8-methoxy-1,2,3,4-tetrahydroisoquinolin-6-yl)pyridin-4-yl)phenyl)-2-methoxypyridin-3-yl)methyl)amino)methyl)pyrrolidin-2-one]
EC50: 36.3 nM

COc1cc(-c2nccc(-c3cccc(-c4ccc(CNC[C@@H]5CCC(=O)N5)c(OC)n4)c3Cl)c2Cl)ccc1CN[C@@H](C)C(=O)OC(C)C [Cmpd 125, isopropyl (4-(3-chloro-4-(2-chloro-3-(6-methoxy-5-(((((S)-5-oxopyrrolidin-2-yl)methyl)amino)methyl)pyridin-2-yl)phenyl)pyridin-2-yl)-2-methoxybenzyl)-L-alaninate]
EC50: 361 nM

COc1cc(-c2nccc(-c3cccc(-c4ccc(CNC[C@@H]5CCC(=O)N5)c(OC)n4)c3Cl)c2Cl)ccc1CNC1CCS(=O)(=O)CC1 [Cmpd 126, (S)-5-((((6-(2-chloro-3-(3-chloro-2-(4-(((1,1-dioxidotetrahydro-2H-thiopyran-4-yl)amino)methyl)-3-methoxyphenyl)pyridin-4-yl)phenyl)-2-methoxypyridin-3-yl)methyl)amino)methyl)pyrrolidin-2-one]
EC50: 36.8 nM

COc1cc(-c2nccc(-c3cccc(-c4ccc(CNC[C@@H]5CCC(=O)N5)c(OC)n4)c3Cl)c2Cl)ccc1CNC1CCOCC1 [Cmpd 127, (S)-5-((((6-(2-chloro-3-(3-chloro-2-(3-methoxy-4-(((tetrahydro-2H-pyran-4-yl)amino)methyl)phenyl)pyridin-4-yl)phenyl)-2-methoxypyridin-3-yl)methyl)amino)methyl)pyrrolidin-2-one]
EC50: 33.5 nM

COc1cc(-c2nccc(-c3cccc(-c4ccc(CNC[C@@H]5CCC(=O)N5)c(OC)n4)c3Cl)c2Cl)cc2c1CN(C[C@H]1C[C@H](O)C1)CC2 [Cmpd 133]
EC50: 21.4 nM

COc1cc(-c2nccc(-c3cccc(-c4ccc(CNC[C@@H]5CCC(=O)N5)c(OC)n4)c3Cl)c2Cl)cc2c1CN(C[C@H]1C[C@@H](O)C1)CC2 [Cmpd 134]
EC50: 23 nM

COc1cc(-c2nccc(-c3cccc(-c4ccc(CN(C)C)c(OC)n4)c3Cl)c2Cl)ccc1CN(C)C [Cmpd 137, 1-(6-(2-chloro-3-(3-chloro-2-(4-((dimethylamino)methyl)-3-methoxyphenyl)pyridin-4-yl)phenyl)-2-methoxypyridin-3-yl)-N,N-dimethylmethanamine]
EC50: 84.3 nM

COc1cc(-c2nccc(-c3cccc(-c4ccc(CN(C)CCO)c(OC)n4)c3Cl)c2Cl)ccc1CN(C)CCO [Cmpd 138, 2-(((6-(2-chloro-3-(3-chloro-2-(4-(((2-hydroxyethyl)(methyl)amino)methyl)-3-methoxyphenyl)pyridin-4-yl)phenyl)-2-methoxypyridin-3-yl)methyl)(methyl)amino)ethan-1-ol]
EC50: 5160 nM

COc1cc(-c2nccc(-c3cccc(-c4ccc(CNC5CCN(C(C)=O)CC5)c(OC)n4)c3Cl)c2Cl)ccc1CNC1CCN(C(C)=O)CC1 [Cmpd 139, 1-(4-(((6-(3-(2-(4-(((1-acetylpiperidin-4-yl)amino)methyl)-3-methoxyphenyl)-3-chloropyridin-4-yl)-2-chlorophenyl)-2-methoxypyridin-3-yl)methyl)amino)piperidin-1-yl)ethan-1-one]
EC50: 12.9 nM

COc1cc(-c2nccc(-c3cccc(-c4ccc(CN(C)C5CCN(C(C)=O)CC5)c(OC)n4)c3Cl)c2Cl)ccc1CN(C)C1CCN(C(C)=O)CC1 [Cmpd 140, 1-(4-(((6-(3-(2-(4-(((1-acetylpiperidin-4-yl)(methyl)amino)methyl)-3-methoxyphenyl)-3-chloropyridin-4-yl)-2-chlorophenyl)-2-methoxypyridin-3-yl)methyl)(methyl)amino)piperidin-1-yl)ethan-1-one]
EC50: ≥ 10000 nM

COC(=O)CN1CCc2cc(-c3nccc(-c4cccc(-c5ccc(CNC[C@@H]6CCC(=O)N6)c(OC)n5)c4Cl)c3Cl)cc(OC)c2C1 [Cmpd 150, methyl (S)-2-(6-(3-chloro-4-(2-chloro-3-(6-methoxy-5-((((5-oxopyrrolidin-2-yl)methyl)amino)methyl)pyridin-2-yl)phenyl)pyridin-2-yl)-8-methoxy-3,4-dihydroisoquinolin-2(1H)-yl)acetate]
EC50: 127 nM

COc1cc(-c2nccc(-c3cccc(-c4ccc(CNC[C@@H]5CCC(=O)N5)c(OC)n4)c3Cl)c2Cl)cc2c1CN(CC(=O)O)CC2 [Cmpd 151, (S)-2-(6-(3-chloro-4-(2-chloro-3-(6-methoxy-5-((((5-oxopyrrolidin-2-yl)methyl)amino)methyl)pyridin-2-yl)phenyl)pyridin-2-yl)-8-methoxy-3,4-dihydroisoquinolin-2(1H)-yl)acetic acid]
EC50: 77.3 nM
